According to ChEMBL document CHEMBL5465560, “Selectivity Literature for EUbOPEN Chemogenomic Library” (2024):

Legend:
[1] = biological target: Serine/threonine-protein kinase ATR (Homo sapiens) (UniProt Q13535); assay: Selectivity interaction (Kinase panel (KiNativ target engagement assay in Jurkat cells)) EUB0001635a ATR; assay type: cell-based; conditions: at 1 µM
[2] = biological target: T1, Ephrin type-A receptor 6 (Homo sapiens) (UniProt Q9UF33); assay: Selectivity interaction (KinomeScan (DiscoverX)) EUB0000229b EPHA6; conditions: at 10 µM
T1 sequence (whole entry): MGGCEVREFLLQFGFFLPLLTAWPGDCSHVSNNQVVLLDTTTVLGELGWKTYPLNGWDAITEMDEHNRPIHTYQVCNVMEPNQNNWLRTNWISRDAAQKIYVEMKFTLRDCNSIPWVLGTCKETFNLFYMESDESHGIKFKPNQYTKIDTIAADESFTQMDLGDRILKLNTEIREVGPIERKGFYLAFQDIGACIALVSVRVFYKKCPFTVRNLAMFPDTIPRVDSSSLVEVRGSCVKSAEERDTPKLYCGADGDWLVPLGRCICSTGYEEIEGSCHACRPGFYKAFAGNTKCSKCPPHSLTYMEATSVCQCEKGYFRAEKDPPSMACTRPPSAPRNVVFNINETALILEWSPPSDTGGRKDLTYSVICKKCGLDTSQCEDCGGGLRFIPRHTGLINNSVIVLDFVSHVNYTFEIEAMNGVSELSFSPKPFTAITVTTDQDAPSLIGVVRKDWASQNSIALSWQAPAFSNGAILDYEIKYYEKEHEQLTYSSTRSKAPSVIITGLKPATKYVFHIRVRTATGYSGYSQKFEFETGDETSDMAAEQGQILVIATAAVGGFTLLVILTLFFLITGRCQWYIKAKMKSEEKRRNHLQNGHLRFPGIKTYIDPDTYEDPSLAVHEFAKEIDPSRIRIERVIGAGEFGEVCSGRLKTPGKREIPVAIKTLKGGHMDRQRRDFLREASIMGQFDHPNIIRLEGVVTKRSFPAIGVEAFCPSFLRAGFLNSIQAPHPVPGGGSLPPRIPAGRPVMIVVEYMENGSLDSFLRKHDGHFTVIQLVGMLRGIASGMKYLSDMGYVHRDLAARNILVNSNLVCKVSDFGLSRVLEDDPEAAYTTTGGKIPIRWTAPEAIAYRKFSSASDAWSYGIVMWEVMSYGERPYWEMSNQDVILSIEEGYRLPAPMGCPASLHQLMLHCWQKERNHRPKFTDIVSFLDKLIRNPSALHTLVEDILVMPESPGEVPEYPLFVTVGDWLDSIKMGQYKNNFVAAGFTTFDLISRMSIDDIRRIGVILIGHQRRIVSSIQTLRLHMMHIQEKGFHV

[3] = biological target: Serine/threonine-protein kinase pim-2 (Homo sapiens, UniProt Q9P1W9); assay: Selectivity interaction (KinomeScan (DiscoverX)) EUB0000045b PIM2
[4] = biological target: CDK2/Cyclin A1 (Homo sapiens) (UniProt P24941+P78396); assay: (§1) Selectivity interaction (LanthaScreen Eu Kinase Binding Assay) EUB0001632a CDK2; assay type: protein-complex assay; conditions: at 10 µM
[5] = biological target: CDK2/Cyclin O (Homo sapiens) (UniProt P24941+P22674); assay: as §1; assay type: protein-complex assay; conditions: at 10 µM
[6] = biological target: Cyclin-dependent kinase 2/cyclin E1 (Homo sapiens) (UniProt P24864+P24941); assay: as §1; assay type: protein-complex assay; conditions: at 10 µM
[7] = biological target: Protein arginine N-methyltransferase 1 (Homo sapiens, UniProt Q99873); assay: Selectivity interaction (Transferase panel (protein, RNA, and DNA methyltransferases. and EP300 (acetyltransferase))) EUB0000270b PRMT1
[8] = biological target: Tyrosine-protein kinase ABL2 (Homo sapiens, UniProt P42684); assay: Selectivity interaction (KinomeScan (DiscoverX)) EUB0000618a ABL2; conditions: at 10 µM
[9] = biological target: T2, Serine/threonine-protein kinase DCLK2 (Homo sapiens) (UniProt Q8N568); assay: Selectivity interaction (Kinase panel (Invitrogen)) EUB0000639a DCLK2; conditions: at 200 nM
T2 sequence (whole entry): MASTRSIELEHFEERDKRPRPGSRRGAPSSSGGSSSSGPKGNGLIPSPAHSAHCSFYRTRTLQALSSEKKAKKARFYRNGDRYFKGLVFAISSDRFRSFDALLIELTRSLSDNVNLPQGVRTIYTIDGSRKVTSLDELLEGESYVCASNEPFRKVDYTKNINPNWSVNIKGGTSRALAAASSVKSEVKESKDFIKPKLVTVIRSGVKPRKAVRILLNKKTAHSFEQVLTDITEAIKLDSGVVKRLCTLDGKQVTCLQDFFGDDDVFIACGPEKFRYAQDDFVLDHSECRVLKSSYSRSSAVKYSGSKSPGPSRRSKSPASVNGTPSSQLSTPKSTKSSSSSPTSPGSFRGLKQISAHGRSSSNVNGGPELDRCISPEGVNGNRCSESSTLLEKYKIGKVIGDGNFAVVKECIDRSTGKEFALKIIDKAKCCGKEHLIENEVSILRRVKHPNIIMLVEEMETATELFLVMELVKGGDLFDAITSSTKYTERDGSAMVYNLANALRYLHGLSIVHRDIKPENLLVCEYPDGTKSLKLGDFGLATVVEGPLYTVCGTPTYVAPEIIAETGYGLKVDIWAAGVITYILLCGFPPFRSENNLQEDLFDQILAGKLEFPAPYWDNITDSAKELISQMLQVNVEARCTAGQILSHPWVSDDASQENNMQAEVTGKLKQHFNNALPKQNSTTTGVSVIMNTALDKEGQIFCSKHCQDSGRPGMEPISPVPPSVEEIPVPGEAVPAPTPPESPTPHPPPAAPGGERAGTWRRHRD

[10] = biological target: T3, MAP kinase-activated protein kinase 5 (Homo sapiens) (UniProt Q8IW41); assay: Selectivity interaction (KinomeScan (DiscoverX)) EUB0000655a MAPKAPK5; conditions: at 10 µM
T3 sequence (whole entry): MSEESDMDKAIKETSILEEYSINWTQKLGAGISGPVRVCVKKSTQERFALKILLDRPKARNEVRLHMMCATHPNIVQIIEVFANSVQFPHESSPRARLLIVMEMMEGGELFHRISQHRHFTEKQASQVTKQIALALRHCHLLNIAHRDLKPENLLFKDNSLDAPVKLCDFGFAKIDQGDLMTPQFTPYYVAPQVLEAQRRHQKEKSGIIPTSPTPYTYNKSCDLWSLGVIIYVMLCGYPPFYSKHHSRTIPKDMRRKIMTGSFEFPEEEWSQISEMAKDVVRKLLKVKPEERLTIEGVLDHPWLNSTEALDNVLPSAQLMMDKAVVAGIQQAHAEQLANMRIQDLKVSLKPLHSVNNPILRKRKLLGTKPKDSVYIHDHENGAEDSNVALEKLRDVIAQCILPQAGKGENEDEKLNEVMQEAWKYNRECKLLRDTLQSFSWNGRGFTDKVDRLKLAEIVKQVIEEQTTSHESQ

[11] = biological target: 5'-AMP-activated protein kinase catalytic subunit alpha-1 (Homo sapiens, UniProt Q13131); assay: Selectivity interaction (Ambit KINOMEscan and KiNATiv profiling in Jurkat cells) EUB0000090b PRKAA1; assay type: cell-based; conditions: at 1 µM
Chain of 5'-AMP-activated protein kinase catalytic subunit alpha-1 (Q13131 whole entry, looked up): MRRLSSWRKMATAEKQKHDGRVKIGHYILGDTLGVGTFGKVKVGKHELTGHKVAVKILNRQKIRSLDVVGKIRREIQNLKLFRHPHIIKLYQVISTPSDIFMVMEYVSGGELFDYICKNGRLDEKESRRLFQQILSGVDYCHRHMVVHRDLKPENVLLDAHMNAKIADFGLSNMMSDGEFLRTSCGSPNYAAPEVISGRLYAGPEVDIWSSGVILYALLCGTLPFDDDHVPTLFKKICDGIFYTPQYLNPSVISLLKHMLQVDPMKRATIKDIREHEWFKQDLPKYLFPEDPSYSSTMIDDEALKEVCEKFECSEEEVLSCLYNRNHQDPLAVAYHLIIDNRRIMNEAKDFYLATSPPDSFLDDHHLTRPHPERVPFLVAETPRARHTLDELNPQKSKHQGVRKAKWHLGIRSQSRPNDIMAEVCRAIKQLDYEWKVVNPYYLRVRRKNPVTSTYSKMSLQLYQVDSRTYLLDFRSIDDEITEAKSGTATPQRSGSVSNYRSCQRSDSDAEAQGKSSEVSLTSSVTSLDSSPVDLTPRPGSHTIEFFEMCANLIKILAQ

Chain of Protein arginine N-methyltransferase 1 (Q99873 whole entry, looked up): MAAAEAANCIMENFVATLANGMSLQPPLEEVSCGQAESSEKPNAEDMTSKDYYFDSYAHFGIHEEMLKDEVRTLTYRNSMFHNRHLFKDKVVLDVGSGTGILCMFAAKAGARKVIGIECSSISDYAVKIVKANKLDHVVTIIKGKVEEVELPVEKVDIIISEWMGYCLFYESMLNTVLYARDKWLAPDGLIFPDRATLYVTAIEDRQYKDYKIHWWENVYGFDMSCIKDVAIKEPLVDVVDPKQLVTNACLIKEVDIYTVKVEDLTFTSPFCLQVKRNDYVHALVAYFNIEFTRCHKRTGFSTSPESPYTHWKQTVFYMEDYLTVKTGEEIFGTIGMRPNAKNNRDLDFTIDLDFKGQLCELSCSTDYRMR
Chain of Serine/threonine-protein kinase pim-2 (Q9P1W9 whole entry, looked up): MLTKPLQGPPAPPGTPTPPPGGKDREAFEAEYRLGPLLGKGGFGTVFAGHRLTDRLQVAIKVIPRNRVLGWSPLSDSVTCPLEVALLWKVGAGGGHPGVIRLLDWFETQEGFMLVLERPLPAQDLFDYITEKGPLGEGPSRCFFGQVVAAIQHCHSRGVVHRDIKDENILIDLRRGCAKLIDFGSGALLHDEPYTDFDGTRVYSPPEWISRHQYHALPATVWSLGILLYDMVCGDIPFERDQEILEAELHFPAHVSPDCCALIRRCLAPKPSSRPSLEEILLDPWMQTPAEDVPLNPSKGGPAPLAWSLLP
Chain of Serine/threonine-protein kinase ATR (Homo sapiens) (Q13535 whole entry, looked up): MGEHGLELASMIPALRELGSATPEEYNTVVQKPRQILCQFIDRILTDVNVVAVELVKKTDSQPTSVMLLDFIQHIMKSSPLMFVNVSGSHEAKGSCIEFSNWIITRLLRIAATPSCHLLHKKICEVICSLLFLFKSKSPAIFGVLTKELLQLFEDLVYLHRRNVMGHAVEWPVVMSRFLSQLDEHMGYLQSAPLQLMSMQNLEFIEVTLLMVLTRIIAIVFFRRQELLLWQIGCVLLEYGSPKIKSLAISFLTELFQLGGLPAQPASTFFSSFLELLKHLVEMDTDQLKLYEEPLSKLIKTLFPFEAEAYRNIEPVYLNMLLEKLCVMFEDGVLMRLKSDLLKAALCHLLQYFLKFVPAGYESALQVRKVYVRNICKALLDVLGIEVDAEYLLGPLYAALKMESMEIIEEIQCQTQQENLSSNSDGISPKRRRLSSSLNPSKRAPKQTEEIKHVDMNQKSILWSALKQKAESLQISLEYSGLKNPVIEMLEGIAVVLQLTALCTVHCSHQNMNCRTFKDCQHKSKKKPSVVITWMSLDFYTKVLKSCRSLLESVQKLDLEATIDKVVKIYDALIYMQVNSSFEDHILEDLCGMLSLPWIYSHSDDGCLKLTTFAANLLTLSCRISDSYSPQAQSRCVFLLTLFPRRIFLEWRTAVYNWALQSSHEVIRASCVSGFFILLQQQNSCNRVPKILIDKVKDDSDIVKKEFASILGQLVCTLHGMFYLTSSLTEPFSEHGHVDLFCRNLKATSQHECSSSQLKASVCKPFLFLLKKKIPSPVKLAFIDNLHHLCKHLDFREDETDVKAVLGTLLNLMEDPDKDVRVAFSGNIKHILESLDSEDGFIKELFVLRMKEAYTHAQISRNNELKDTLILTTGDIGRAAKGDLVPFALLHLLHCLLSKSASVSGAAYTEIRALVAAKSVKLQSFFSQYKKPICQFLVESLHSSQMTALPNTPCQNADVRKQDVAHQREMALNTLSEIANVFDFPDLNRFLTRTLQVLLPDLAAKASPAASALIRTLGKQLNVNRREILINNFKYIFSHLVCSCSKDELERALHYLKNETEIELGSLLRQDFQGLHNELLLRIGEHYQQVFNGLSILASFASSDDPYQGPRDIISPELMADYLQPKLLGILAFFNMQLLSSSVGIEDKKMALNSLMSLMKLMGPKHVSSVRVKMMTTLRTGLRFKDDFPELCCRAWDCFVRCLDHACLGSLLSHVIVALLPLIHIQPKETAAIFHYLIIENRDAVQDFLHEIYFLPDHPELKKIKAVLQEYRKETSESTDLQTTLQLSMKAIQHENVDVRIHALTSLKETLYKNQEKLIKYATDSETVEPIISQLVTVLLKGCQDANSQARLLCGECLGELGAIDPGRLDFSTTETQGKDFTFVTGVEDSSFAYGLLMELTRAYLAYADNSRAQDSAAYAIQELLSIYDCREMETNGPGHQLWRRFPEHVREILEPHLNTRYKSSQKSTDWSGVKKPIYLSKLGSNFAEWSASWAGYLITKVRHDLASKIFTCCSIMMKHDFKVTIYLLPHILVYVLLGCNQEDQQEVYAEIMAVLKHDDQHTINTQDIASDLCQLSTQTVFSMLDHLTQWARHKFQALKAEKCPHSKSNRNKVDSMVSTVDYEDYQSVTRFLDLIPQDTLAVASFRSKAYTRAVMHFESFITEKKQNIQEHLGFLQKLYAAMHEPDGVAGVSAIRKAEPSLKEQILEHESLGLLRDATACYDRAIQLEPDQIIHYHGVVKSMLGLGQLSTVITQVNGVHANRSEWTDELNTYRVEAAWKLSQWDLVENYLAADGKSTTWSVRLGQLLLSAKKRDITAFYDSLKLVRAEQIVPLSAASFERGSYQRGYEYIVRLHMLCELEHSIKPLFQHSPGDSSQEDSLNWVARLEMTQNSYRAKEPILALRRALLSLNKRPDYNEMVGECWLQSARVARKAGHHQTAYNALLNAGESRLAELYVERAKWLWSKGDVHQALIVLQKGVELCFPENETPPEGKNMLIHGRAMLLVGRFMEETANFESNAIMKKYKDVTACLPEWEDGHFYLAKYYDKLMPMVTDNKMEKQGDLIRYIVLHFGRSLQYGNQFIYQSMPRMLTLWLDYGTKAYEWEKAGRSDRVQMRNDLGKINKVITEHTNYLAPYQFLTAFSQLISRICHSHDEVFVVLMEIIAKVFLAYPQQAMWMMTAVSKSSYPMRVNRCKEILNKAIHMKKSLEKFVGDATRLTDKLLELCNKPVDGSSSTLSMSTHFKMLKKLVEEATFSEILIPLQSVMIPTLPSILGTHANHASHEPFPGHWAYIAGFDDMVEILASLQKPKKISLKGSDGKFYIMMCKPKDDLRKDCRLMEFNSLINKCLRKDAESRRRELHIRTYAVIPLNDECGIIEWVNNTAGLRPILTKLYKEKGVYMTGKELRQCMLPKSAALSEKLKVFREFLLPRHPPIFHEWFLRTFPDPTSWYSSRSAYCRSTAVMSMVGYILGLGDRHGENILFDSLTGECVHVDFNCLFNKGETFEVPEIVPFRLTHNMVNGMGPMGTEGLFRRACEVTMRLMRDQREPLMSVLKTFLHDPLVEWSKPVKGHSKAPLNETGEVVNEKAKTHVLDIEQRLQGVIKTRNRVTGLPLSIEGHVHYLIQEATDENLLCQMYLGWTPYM
Chain of Tyrosine-protein kinase ABL2 (P42684 whole entry): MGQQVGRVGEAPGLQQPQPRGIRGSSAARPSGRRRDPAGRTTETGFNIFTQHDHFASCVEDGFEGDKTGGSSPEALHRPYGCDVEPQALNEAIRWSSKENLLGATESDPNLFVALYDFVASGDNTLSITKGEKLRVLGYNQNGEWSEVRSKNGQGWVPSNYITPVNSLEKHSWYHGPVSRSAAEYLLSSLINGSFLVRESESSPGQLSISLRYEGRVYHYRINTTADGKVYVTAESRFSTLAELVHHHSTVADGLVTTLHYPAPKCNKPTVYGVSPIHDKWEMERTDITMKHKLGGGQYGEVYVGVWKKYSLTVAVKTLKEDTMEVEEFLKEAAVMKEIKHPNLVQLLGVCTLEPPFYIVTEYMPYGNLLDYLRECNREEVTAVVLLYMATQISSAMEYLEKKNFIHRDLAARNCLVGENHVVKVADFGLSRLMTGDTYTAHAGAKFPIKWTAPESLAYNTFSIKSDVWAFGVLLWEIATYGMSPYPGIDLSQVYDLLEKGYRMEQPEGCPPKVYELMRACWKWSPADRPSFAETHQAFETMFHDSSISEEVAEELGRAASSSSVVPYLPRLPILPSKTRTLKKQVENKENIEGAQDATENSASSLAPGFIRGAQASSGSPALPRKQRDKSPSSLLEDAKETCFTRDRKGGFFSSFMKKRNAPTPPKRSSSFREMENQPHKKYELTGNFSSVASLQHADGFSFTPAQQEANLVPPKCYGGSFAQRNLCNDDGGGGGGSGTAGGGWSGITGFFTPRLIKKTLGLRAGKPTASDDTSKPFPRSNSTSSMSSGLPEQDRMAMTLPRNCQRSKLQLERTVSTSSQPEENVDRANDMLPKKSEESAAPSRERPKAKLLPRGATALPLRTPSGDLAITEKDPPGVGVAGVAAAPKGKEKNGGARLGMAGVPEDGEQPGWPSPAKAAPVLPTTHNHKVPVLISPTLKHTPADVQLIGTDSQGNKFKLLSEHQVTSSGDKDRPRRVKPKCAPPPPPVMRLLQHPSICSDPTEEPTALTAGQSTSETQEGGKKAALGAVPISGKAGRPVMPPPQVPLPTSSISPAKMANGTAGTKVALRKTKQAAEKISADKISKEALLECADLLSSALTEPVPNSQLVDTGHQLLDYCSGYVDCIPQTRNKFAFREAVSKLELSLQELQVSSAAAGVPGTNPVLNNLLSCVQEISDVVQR

C=CC(=O)Nc1ccc(C(=O)Nc2[nH]nc3c2CN(C(=O)N[C@H](CN(C)C)c2ccccc2)C3(C)C)cc1
% of engagement [1]: -11.3%

COc1cc(N(C)c2ccnc3ccc(C(F)(F)F)cc23)cc(OC)c1OC
% binding [2]: 97%

C=CC(=O)Nc1cc(-n2c(=O)ccc3cnc4ccc(-c5ccc(NS(C)(=O)=O)cc5)cc4c32)ccc1C
% of control ([3]; at 1 µM): 66%
% of control ([3]; at 10 µM): 100%

Cn1cc(-n2cnc3c(NCc4nc5cc(Cl)c(Cl)cc5[nH]4)nc(N4CCOCC4)nc32)cn1
% of inhibition [4]: -33.3%
% of inhibition [5]: -162%
% of inhibition [6]: -64.3%

Cc1cc(CN)cc(C)c1-c1ncn(C)c1-c1cncn1C
% activity ([7]; at 1 µM): > 90%
% activity ([7]; at 10 µM): > 80%

O[C@H]1CC[C@H](Nc2ncc3nc(Nc4c(F)cc(F)cc4F)n([C@H]4CCOC4)c3n2)CC1
% of control [8]: 100%

CC[C@@H]1[C@H](F)C(=O)N[C@@H]1COc1nccc2cc(C(N)=O)c(OC)cc12 [ZIMLOVISERTIB]
% of inhibition [9]: 24.9%

CN(C)CCOc1ccc(-c2nc(-c3ccncc3)c(-c3ccc4c(c3)CC/C4=N\O)[nH]2)cc1
% of control [10]: 100%

CN(C)C/C=C/C(=O)Nc1ccc(C(=O)N2CCCC(Nc3ncc(Cl)c(-c4c[nH]c5ccccc45)n3)C2)cc1 (stereo not drawn)
% of control [11]: 79%
